Experiment [1] relates to C57BL/6 mice. Description: K/B×N serum transfer arthritis, preventive protocol. The experiment is classed as in vivo, mouse. Here is the method: The TCR transgenic mice expressing the KRN and the MHC class II A^g7 molecule (K/B×N mice) have developed a severe inflammatory arthritis. The administration of serum of these mice to healthy recipient mice causes inflammatory arthritis over a period of about 15 days with a peak ignition around day 7 post-injection.
Two mouse serum administrations from K/B×N were performed (day 0 and day 2). The injection of serum (100 μl/mouse) is performed by intra-peritoneal (ip) injection in mice C57BL/6 (or B6) for 8 weeks (n=10); untreated mouse (n=10).
The P140 peptide (100 μg/100 μl; iv retro-orbital) was administered as follows:
Curative treatment: Injection at day 1 and day 4, to guide the peak of inflammatory disease. Preventive treatment: Injection at day −7 and day −2. Bleeding S0 (at day 0) is followed by bloodletting conducted every six days to dispose of serum. The study ends when inflammation has returned to its basal level, to around day 20 (see FIG. 19).
During the peak of inflammation, every day the animals are evaluated, and swelling score of articulation is established. It is ranged from 0 to 4 and based on a joint observation of the animal. In practice, this score is given for each leg (4 values) and these values are added together to get a general score that ranges from 0 to 16 (FIG. 20).

Experiment [2] deals with C57BL/6 mice. Description: DSS-induced colonic inflammation model. The format is in vivo, mouse. An excerpt:
Normal mice (C57BL/6; 7 week-old; males) have received the P140 peptide ([…], iv route; 10 mice) or saline only (control group; 10 mice) at days −2 and −1. At day 0, dextran sodium sulfate (DSS; 2-3%) was administrated to induce the disease.
Animals were examined every day for body weight loss, stool consistency, diarrhea, and blood in the feces. The animals were sacrificed around day 14 or at any time if they are very sick (loss >25% body weight). Statistics: Mann-Whitney (exact)

The subject of the next experiment is CD4+ T splenocytes. Description: Collagen-induced arthritis (CIA) DBA/1 mice, ex vivo T splenocyte proliferation with CII (CFSE, FACS). The format is in vivo, mouse. Here is the method:
Next, P140 peptide was administered in a model of mice that develop a RA-like disease (we anticipated to use this mouse model as a negative control of MRL/lpr-lupus prone mice). This model, called collagen-induced arthritis (CIA) mouse model, is the most commonly studied autoimmune model of RA. In this model, autoimmune arthritis is induced by immunizing DBA/1 mice with an emulsion of complete Freund's adjuvant (CFA) and type II collagen (CII), and typically, the first signs of arthritis appear in 21-28 days after immunization (Brand et al., 2007). CIA shares several pathological features with human RA, and CII is a major protein in cartilage, the target tissue of RA. Pathological features include synovial hyperplasia, mononuclear cell infiltration, and cartilage degradation. Susceptibility in these mice is linked to the expression of specific MHC class II genes, DBA/1 have H-2^q haplotype.
P140 peptide was thus administrated intravenously to DBA/1 mice at day −1, +7, +14 and +20 in a setting close to the one we used in MRL/lpr mice (100 μg/injection/mouse). CII in CFA was injected at days +1 and +21 (200 μg, intradermal route). Mouse weight and their clinical score were followed using very classical procedure. Biological parameters were also evaluated (i.e. T cell response, antibody response, joint histology, etc).

The target in a further experiment is T1, HSC70 protein (Bos taurus, UniProt P19120).
T1 construct: purchased Stressgen
Description: BIAcore binding of peptides to immobilized HSC70. Also noted: species or system bovine. Here is the method:
BIAcore 3000 system (Biacore AB) was used to evaluate the binding of P140 peptides to HSC70 protein (Page et al., 2009, and 2011). Sensor chip CM5, surfactant P20, amine coupling kit containing N-hydroxysuccinimide (NHS) and N-ethyl-N′-dimethylaminopropyl carbodiimide (EDC), 2-(2-pyridinyldithio)ethaneamine (PDEA) and ethanolamine were from Biacore AB. Biosensor assays were performed with HBS-EP buffer as running buffer (10 mM HEPES, 150 mM NaCl, 3 mM EDTA, 0.005% surfactant P20, pH 7.4). The compounds were diluted in the running buffer. The sensor chip surface was regenerated after each experiment by injecting 10 μL of 10 mM HCl. Recombinant bovine HSC70 (Stressgen) was immobilized on flow cells of a CM5 sensor chip through its thiol groups using 35 μL PDEA in 50 mM borate buffer, pH 8.3 on the NHS/EDC-activated matrix. Then, 35 μL of HSC70 (100 μg/mL in formate buffer, pH 4.3) were injected until a response of 13,000 response units (RU) corresponding to 13 ng/mm^2 of HSC70 was immobilized. Twenty μL of a 50 mM cysteine/1 M NaCl solution was used to saturate unoccupied sites on the chip. The direct binding measurement of P140 peptides to HSC70 was carried out at 25° C. with a constant flow rate of 20 μL/min. P140 peptide and analogues were injected in the flux at different concentrations for 3 min, followed by a dissociation phase of 3 min. The kinetic parameters were calculated using the BIAeval 3.1 software on a personal computer. Analysis was performed using the simple 1:1 Langmuir binding model. The specific binding profiles were obtained after subtracting the response signal from the control empty channel and from blank-buffer injection. The fitting to each model was judged by the χ^2 value and randomness of residue distribution compared to the theoretical model.
(In general: In SPR one partner is held on a chip, and binding of the other changes the refractive index at the surface.)

Non-standard residues stand in square brackets, D forms with d. Residues, ends and D or L forms follow the SMILES beside them. pS = N[C@@H](COP(=O)(O)O)C(=O)O Some results are limits rather than exact numbers.

We go through 1 molecule from patent publication US20210308211A1, “METHOD OF TREATING VIRAL INFECTIONS” (priority 2020, published 2021).

T1 sequence (P19120 whole entry): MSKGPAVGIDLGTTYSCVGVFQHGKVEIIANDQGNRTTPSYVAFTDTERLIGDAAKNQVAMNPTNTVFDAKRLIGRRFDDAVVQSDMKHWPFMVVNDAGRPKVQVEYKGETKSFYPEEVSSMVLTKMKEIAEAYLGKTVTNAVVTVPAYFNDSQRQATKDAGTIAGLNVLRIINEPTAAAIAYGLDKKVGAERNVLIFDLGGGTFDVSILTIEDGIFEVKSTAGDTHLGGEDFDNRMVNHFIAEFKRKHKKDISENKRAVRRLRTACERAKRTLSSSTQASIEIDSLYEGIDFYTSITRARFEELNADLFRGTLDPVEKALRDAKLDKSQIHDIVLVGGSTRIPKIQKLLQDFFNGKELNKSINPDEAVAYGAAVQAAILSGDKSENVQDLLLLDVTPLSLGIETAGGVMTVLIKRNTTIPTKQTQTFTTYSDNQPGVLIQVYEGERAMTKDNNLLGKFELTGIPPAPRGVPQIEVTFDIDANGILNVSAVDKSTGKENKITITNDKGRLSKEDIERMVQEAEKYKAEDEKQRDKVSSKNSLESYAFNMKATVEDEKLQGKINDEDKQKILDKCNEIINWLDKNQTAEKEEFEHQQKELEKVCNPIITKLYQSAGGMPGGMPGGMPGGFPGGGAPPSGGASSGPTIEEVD

For `CC[C@H](C)[C@H](NC(=O)[C@H](Cc1ccccc1)NC(=O)[C@H](C)NC(=O)[C@H](Cc1ccc(O)cc1)NC(=O)CNC(=O)[C@H](CCCNC(=N)N)NC(=O)[C@@H]1CCCN1C(=O)[C@H](CCCCN)NC(=O)CNC(=O)[C@H](COP(=O)(O)O)NC(=O)[C@H](CCCNC(=N)N)NC(=O)[C@H](CCCCN)NC(=O)[C@H](CO)NC(=O)[C@H](Cc1ccc(O)cc1)NC(=O)[C@@H](NC(=O)[C@H](CCSC)NC(=O)[C@H](Cc1c[nH]cn1)NC(=O)[C@@H](NC(=O)[C@@H](N)CCCNC(=N)N)[C@@H](C)CC)C(C)C)C(=O)N[C@@H](CCC(=O)O)C(=O)N[C@@H](Cc1ccc(O)cc1)C(=O)O` [Compound P140] (H-RIHMVYSKR[pS]GKPRGYAFIEY-OH; N-terminus and C-terminus assumed), the “Clinical signs (swelling joints, weight loss, inflammation score) (in words)” value in the experiment on C57BL/6 mice [1] (K/B×N model) is reported as “tend to be attenuated”. Moreover, the Weight loss with C57BL/6 mice [1] (preventive protocol (injection day −7 and day −2), day 1 to day 7, controls 10%) amounted to 5%. Besides, the “Increase in size of joints, right back legs” value in the experiment with C57BL/6 mice [1] (preventive protocol, day 0 to day 7, control mice about 22%) was “around 12%”. The “Increase in size of the joint, left hind paws” value in the experiment with C57BL/6 mice [1] (preventive protocol, day 0 to day 7, controls about 30%) is listed as “about 15%”. Moreover, the “General inflammation score, maximum” value in the experiment on C57BL/6 mice [1] (preventive protocol, sum of four legs, controls around 7, p=0.0156) was at most 5. The “Increase in size of articulation, left front leg” value in the experiment with C57BL/6 mice [1] (preventive protocol, controls 45%, P=0.0397) came to 20%. Further, in the experiment with C57BL/6 mice [1] (preventive protocol, controls nearly 45%, p=0.0069), the “Swelling in the joints of right front leg” value is on record as “+20%”. Moreover, the DAI entry in the experiment on C57BL/6 mice [2] (P140 i.v. days −2 and −1 vs saline, p=0.5386) is “Little difference”. Besides, in the experiment with C57BL/6 mice [2] (P140 i.v. days −2 and −1 vs saline, reflects decrease of inflammation, p=0.0011), the Colon size entry is on record as “significant increase”. Besides, the Body weight entry in the experiment with C57BL/6 mice [2] (between the two groups) is listed as “No difference”. In the experiment on C57BL/6 mice [2] (control groups day +6), the “Day at which blood appeared in the feces” value is reported as “+8 day”. Besides, in the experiment on CD4+ T splenocytes (DBA/1 CIA mice, 100 μg/injection i.v. day −1, +7, +14, +20, ex vivo 100 μg CII/mL), the “CD4+ T splenocytes proliferation” value was “strongly diminished”. The “CD8+ T cells proliferation” value in the experiment on CD4+ T splenocytes (same conditions as CD4+ T cells) is “No effect”. Also, the “Rmax (RU)” value on HSC70 protein (25° C., 1:1 Langmuir model) was 83.3 RU. On HSC70 protein (25° C., 1:1 Langmuir model, analyte 1.56-25 μM, read-out: ka), the kon is 450 M⁻¹ s⁻¹. Also, the “Affinity for HSC70, oxidized vs non-oxidized peptide (in words)” value on HSC70 protein (P140 compared with P140 M(O)) is on record as “not statistically different”. Besides, the “Req (RU)” value turned out to be 15.3 RU at HSC70 protein (peptide 1.56 μM); 25.8 RU at HSC70 protein (peptide 3.12 μM); 39.5 RU on HSC70 protein (peptide 6.25 μM); 53.6 RU on HSC70 protein (peptide 12.5 μM); 65.2 RU at HSC70 protein (peptide 25 μM). In addition, at HSC70 protein (peptide 25 μM), the “kobs” value worked out at 0.0144 s⁻¹.
